Results taken from patent publication EP4635969A1, “NOVEL GLUCOCORTICOID, METHOD FOR PREPARING SAME, AND USE THEREOF” (Tianjin Pharmaceutical Biotechnology Co., Ltd., priority 2022, dated 2024).
pEC50: −log10 of the molar value. Read-outs that look alike come from different tables or passages of the source.

Tests used:
Type in all cases: cell-based
[1] = biological target: T1, progesterone receptor (PR) (Homo sapiens, UniProt P06401); assay: Assay for agonist activity on progesterone receptor (luciferase reporter, HEK293 cells transfected with pBIND-PR plasmid); details: for EC50: EC50 of agonist activity, HEK293 reporter cells, top concentration 50 µM, read-out: Nuclear receptor enzyme activity (nM) PR; for Target selectivity PR/GR: ratio of EC50 values
T1 sequence (P06401 678-933): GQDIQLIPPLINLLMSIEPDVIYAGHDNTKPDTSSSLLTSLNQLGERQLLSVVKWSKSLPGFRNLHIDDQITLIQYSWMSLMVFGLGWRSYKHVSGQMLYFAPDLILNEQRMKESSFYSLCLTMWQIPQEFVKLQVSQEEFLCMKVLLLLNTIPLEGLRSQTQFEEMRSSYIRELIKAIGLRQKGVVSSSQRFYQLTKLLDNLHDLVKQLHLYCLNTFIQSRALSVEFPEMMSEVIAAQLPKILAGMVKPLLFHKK
Description: (§1) Pharmacological Example 2: Assay for Agonist Activity on Mineralocorticoid Receptor (MR) and Progesterone Receptor (PR)
(§2) Test compound stock solutions: The test compounds (compounds 4, 5, 7, 8, 9, 11, 13, 16, 17, 18, 22, 23, 24, 34, 35, 36, 38, 41, 45, 47, 53, 55, and 59) were accurately weighed, dissolved in DMSO to prepare stock solutions at a concentration of 20 mM, and stored at -20 °C.
(§3) The test compounds were subjected to a 4-fold serial dilution starting from an initial concentration of 50 µ M, generating a 12-point concentration gradient with duplicate wells for each concentration. The blank control consisted of 0.1% DMSO.
(§4) The HEK293 stable cell lines […] transfected with mineralocorticoid receptor (MR) and progesterone receptor (PR) (ICE Bioscience, Lot No. TYP-20220819, TPJ-20220812) were cultured in Dulbecco's Modified Eagle Medium (DMEM) supplemented with 10% fetal bovine serum (FBS) and 200 µ g/ml Hygromycin B in a cell incubator containing 5% CO2 at 37 °C. The spent medium was aspirated, and the cells were washed once with phosphate-buffered saline (PBS). Then, 1 mL of TrypLE™ Express solution was added, and the cells were incubated at 37 °C for approximately 2 min. When the cells detached from the bottom of the cell culture dish, approximately 5 mL of pre-warmed complete medium at 37 °C was added. The cell suspension was gently pipetted with a pipette to dissociate clumped cells. The cell suspension was transferred to a sterile centrifuge tube and centrifuged at 1000 rpm for 5 min to pellet the cells for experiments or subculture..
(§5) HEK293 cells were digested and seeded into 6-cm culture dishes. The pBIND-MR and pBIND-PR plasmids were separately transfected into the HEK293 cells using a transfection reagent, resulting in HEK293 cells successfully transfected with the pBIND-MR and pBIND-PR plasmids, respectively. The cells were resuspended in phenol red-free DMEM medium containing 5% charcoal-stripped serum, counted, and then seeded into 96-well plates. The test compounds were added, and the plates were then incubated in an incubator. The luminescence signal values were measured using a multimode microplate reader following the instructions of the luciferase assay kit. The EC50 values of each test compound were calculated using the nonlinear fitting formula with GraphPad Prism 8.0 software.

[2] = biological target: T2, mineralocorticoid receptor (MR) (Homo sapiens, UniProt P08235); assay: Assay for agonist activity on mineralocorticoid receptor (luciferase reporter, HEK293 cells transfected with pBIND-MR plasmid); details: for EC50: EC50 of agonist activity, HEK293 reporter cells, top concentration 50 µM, read-out: Nuclear receptor enzyme activity (nM) MR; for Target selectivity MR/GR: ratio of EC50 values
T2 sequence (P08235 726-984): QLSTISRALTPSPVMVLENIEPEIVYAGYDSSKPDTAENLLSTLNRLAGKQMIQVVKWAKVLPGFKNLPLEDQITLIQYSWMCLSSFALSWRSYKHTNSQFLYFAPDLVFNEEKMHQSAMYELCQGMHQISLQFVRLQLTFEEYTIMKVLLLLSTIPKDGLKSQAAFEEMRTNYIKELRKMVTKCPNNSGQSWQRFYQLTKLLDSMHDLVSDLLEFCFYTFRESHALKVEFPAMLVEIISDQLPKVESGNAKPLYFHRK
Description: as §1, §2, §3, §4, §5

[3] = biological target: T3, glucocorticoid receptor (GR) (Homo sapiens, UniProt P04150); assay: Assay for agonist activity on glucocorticoid receptor (luciferase reporter, HEK293 cells transfected with pBIND-GR plasmid); details: for EC50: EC50 of agonist activity, HEK293 reporter cells, read-out: Nuclear receptor enzyme activity (nM) GR; for pEC50: HEK293 cells transfected with pBIND-GR, luciferase signal, read-out: GR agonist EC50
T3 sequence (P04150 521-777): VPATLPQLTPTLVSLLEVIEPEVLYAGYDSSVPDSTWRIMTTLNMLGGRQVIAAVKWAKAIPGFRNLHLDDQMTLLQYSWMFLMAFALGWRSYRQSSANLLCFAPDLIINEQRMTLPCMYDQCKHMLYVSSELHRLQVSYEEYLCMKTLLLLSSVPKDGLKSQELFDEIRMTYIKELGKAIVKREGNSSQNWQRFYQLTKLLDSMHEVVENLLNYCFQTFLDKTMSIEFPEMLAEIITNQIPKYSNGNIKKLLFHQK
Summary of the method: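 Readout is luciferase luminescence, with EC50 derived by nonlinear fitting. Compounds ran at 10 concentrations (4-fold steps, top 10 µM, duplicate wells) on pBIND-GR-transfected HEK293 cells in phenol red-free DMEM plus 5% charcoal-stripped serum; 0.1% DMSO served as blank.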

Row | Structure (SMILES) | EC50 [1] | Target selectivity PR/GR [1] | EC50 [2] | Target selectivity MR/GR [2] | EC50 [3] | pEC50 [3]
1 | C[C@]12C=CC(=O)C=C1CC[C@H]1[C@@H]3C[C@H]4OC(c5ccc(CNC6CCOC6=O)cc5)O[C@@]4(C(=O)CO)[C@@]3(C)C[C@H](O)[C@@]12F (stereo partly drawn) [Compound 18, (6aS,6bR,7S,8aS,8bS,11aR,12aS,12bS)-6b-Fluoro-7-hydroxy-8b-(2-hydroxyacetyl)-6a,8a-dimethyl-10-(4-(((2-oxotetrahydrofuran-3-yl)amino)methyl)phenyl)-1,2,6a,6b,7,8,8a,8b,11a,12,12a,12b-dodecahydro-4H-naphtho[2',1':4,5]indeno[1,2-d][1,3]dioxol-4-one] | > 50000 nM | > 3.1×10^4 | > 50000 nM | > 3.1×10^4 | 1.62 nM | 8.79
2 | C[C@]12C=CC(=O)C=C1CC[C@H]1[C@@H]3C[C@H]4OC(c5ccc(CNC6CCOC6=O)cc5)O[C@@]4(C(=O)CO)[C@@]3(C)C[C@H](O)[C@@]12Cl (stereo partly drawn) [Compound 24, (6aS,6bR,7S,8aS,8bS,11aR,12aS,12bS)-6b-Chloro-7-hydroxy-8b-(2-hydroxyacetyl)-6a,8a-dimethyl-10-(4-(((2-oxotetrahydrofuran-3-yl)amino)methyl)phenyl)-1,2,6a,6b,7,8,8a,8b,11a,12,12a,12b-dodecahydro-4H-naphtho[2',1':4,5]indeno[1,2-d][1,3]dioxol-4-one] | > 50000 nM | > 4.5×10^4 | > 50000 nM | > 4.5×10^4 | 1.12 nM | 8.95
3 | C[C@]12C=CC(=O)C=C1CC[C@H]1[C@@H]3C[C@H]4OC(c5ccc(CSC6CCOC6=O)cc5)O[C@@]4(C(=O)CCl)[C@@]3(C)C[C@H](O)[C@@]12Cl (stereo partly drawn) [Compound 38, (6aS,6bR,7S,8aS,8bS,11aR,12aS,12bS)-6b-chloro-8b-(2-chloroacetyl)-7-hydroxy-6a,8a-dimethyl-10-(4-(((2-oxotetrahydrofuran-3-yl)thio)methyl)phenyl)-1,2,6a,6b,7,8,8a,8b,11a,12,12a,12b-dode cahydro-4H-naphtho[2',1':4,5]indeno[1,2-d][1,3]dioxol-4-one] | > 50000 nM | > 4.5×10^5 | > 50000 nM | > 4.5×10^5 | 0.11 nM | 9.96
4 | C[C@]12C=CC(=O)C=C1CC[C@H]1[C@@H]3C[C@H]4OC(c5ccc(SC6CCOC6=O)cc5)O[C@@]4(C(=O)CO)[C@@]3(C)C[C@H](O)[C@@]12F (stereo partly drawn) [Compound 41, (6aS,6bR,7S,8aS,8bS,11aR,12aS,12bS)-6b-Fluoro-7-hydroxy-8b-(2-hydroxyacetyl)-6a,8a-dimethyl-10-(4-((2-oxotetrahydrofuran-3-yl)thio)phenyl)-1,2,6a,6b,7,8,8a,8b,11a,12,12a,12b-dodecahydr o-4H-naphtho[2',1':4,5]indeno[1,2-d][1,3]dioxol-4-one] | > 50000 nM | > 8077 | > 50000 nM | > 8077 | 6.19 nM | 8.21
5 | C[C@]12C=CC(=O)C=C1CC[C@H]1[C@@H]3C[C@H]4OC(C5CCC(SC6CCOC6=O)CC5)O[C@@]4(C(=O)CO)[C@@]3(C)C[C@H](O)[C@@]12F (stereo partly drawn) [Compound 45, (6aS,6bR,7S,8aS,8bS,11aR,12aS,12bS)-6b-Fluoro-7-hydroxy-8b-(2-hydroxyacetyl)-6a,8a-dimethyl-10-(4-((2-oxotetrahydrofuran-3-yl)thio)cyclohexyl)-1,2,6a,6b,7,8,8a,8b,11a,12,12a,12b-dodeca hydro-4H-naphtho[2',1':4,5]indeno[1,2-d][1,3]dioxol-4-one] | > 50000 nM | > 3.1×10^4 | > 50000 nM | > 3.1×10^4 | 1.62 nM | 8.79
6 | C[C@]12C=CC(=O)C=C1CC[C@H]1[C@@H]3C[C@H]4OC(c5cnc(CSC6CCOC6=O)nc5)O[C@@]4(C(=O)CO)[C@@]3(C)C[C@H](O)[C@@]12F (stereo partly drawn) [Compound 53, (6aS,6bR,7S,8aS,8bS,11aR,12aS,12bS)-6b-Fluoro-7-hydroxy-8b-(2-hydroxyacetyl)-6a,8a-dimethyl-10-(2-(((2-oxotetrahydrofuran-3-yl)thio)methyl)pyrimidin-5-yl)-1,2,6a,6b,7,8,8a,8b,11a,12,12a, 12b-dodecahydro-4H-naphtho[2',1':4,5]indeno[1,2-d][1,3]dioxol-4-one] | > 50000 nM | 6017 | > 50000 nM | 6017 | 8.31 nM | 8.08
7 | C[C@]12C=CC(=O)C=C1[C@@H](F)C[C@H]1[C@@H]3C[C@H]4OC(c5ccc(C[S+]([O-])C6CCOC6=O)cc5)O[C@@]4(C(=O)CO)[C@@]3(C)C[C@H](O)[C@@]12F (stereo partly drawn) [Compound 55, (2S,6aS,6bR,7S,8aS,8bS,11aR,12aS,12bS)-2,6b-Difluoro-7-hydroxy-8b-(2-hydroxyacetyl)-6a,8a-dimethyl-10-(4-(((2-oxotetrahydrofuran-3-yl)sulfinyl)methyl)phenyl)-1,2,6a,6b,7,8,8a,8b,11a,12,1 2a,12b-dodecahydro-4H-naphtho[2',1':4,5]indeno[1,2-d][1,3]dioxol-4-one] | > 50000 nM | > 3.8×10^4 | > 50000 nM | > 3.8×10^4 | 1.33 nM | 8.88
8 | C[C@]12C=CC(=O)C=C1CC[C@H]1[C@@H]3C[C@H]4OC(c5ccc(CS(=O)(=O)C6CCOC6=O)cc5)O[C@@]4(C(=O)CO)[C@@]3(C)C[C@H](O)[C@@]12F (stereo partly drawn) [Compound 59, (6aS,6bR,7S,8aS,8bS,11aR,12aS,12bS)-6b-Fluoro-7-hydroxy-8b-(2-hydroxyacetyl)-6a,8a-dimethyl-10-(4-(((2-oxotetrahydrofuran-3-yl)sulfonyl)methyl)phenyl)-1,2,6a,6b,7,8,8a,8b,11a,12,12a,12b-dodecahydro-4H-naphtho[2',1':4,5]indeno[1,2-d][1,3]dioxol-4-one] | > 50000 nM | > 1.2×10^4 | > 50000 nM | > 1.2×10^4 | 4.01 nM | 8.40
